Results on one compound are retold here after publication PMC3162300 (Journal of Natural Products, 2011).

This experiment has as its target T1, IKK2 (Homo sapiens, UniProt O14920).
T1 sequence (O14920 1-756): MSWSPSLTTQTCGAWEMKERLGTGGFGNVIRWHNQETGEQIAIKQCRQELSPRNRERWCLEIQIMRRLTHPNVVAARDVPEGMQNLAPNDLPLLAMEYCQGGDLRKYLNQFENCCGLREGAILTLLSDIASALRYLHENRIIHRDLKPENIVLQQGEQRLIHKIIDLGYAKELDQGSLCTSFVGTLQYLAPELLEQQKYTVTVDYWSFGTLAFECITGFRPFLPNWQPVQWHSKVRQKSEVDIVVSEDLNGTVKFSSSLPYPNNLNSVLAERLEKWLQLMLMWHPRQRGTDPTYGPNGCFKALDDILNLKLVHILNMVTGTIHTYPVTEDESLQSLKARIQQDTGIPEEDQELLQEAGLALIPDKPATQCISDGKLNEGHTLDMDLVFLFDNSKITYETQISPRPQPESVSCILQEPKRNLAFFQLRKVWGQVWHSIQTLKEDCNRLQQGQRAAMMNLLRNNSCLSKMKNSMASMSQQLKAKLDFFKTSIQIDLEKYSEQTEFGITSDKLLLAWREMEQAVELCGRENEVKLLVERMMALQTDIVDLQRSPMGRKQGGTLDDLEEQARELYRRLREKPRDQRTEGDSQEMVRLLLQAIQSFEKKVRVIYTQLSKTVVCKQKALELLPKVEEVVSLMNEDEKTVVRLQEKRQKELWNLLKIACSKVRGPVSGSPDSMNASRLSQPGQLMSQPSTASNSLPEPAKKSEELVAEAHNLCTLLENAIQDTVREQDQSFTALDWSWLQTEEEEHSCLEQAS
Briefly: IKK2 enzymatic activity assay. The format is biochemical. To be noted: 400 nM.

With `NC(=O)Nc1sc(-c2ccc(F)cc2)cc1C(N)=O` [IKK2 inhibitor IV], the “effect on IKK2 enzymatic activity” value is reported as “completely suppressed IKK2 enzymatic activity to the background level”.
